Paper PMC9657321, “Identification of Boronate-Containing Diarylpyrimidine Derivatives as Novel HIV-1 Non-Nucleoside Reverse Transcriptase Inhibitors” (Molecules, 2022)

How the values were obtained:
[1] = tested on: HIV-1 E138K mutant strain; experiment: microbe, parasite or virus in culture; format: cell-based; conditions: for EC50: Human immunodeficiency virus 1, MT4, read-out: EC50 E138K; for SI E138K: ratio CC50/EC50, E138K; for RF E138K: ratio EC50 (resistant viral strain)/EC50 (wild-type viral strain)
Description: (§1) All data were calculated using the median optical density (OD) value of three wells.

[2] = tested on: HIV-1 F227L + V106A mutant strain; experiment: microbe, parasite or virus in culture; format: cell-based; conditions: for EC50: Human immunodeficiency virus 1, MT4, read-out: EC50 F227L + V106A; for SI F227L + V106A: ratio CC50/EC50, F227L + V106A; for RF F227L + V106A: ratio EC50 (resistant viral strain)/EC50 (wild-type viral strain)
Description: as §1

[3] = tested on: HIV-1 K103N mutant strain; experiment: microbe, parasite or virus in culture; format: cell-based; conditions: for EC50: Human immunodeficiency virus 1, MT4, read-out: EC50 K103N, MT-4 cells, K103N, MTT method; for SI K103N: ratio CC50/EC50, K103N; for RF K103N: ratio EC50 (resistant viral strain)/EC50 (wild-type viral strain)
Description: as §1

[4] = tested on: HIV-1 L100I mutant strain; experiment: microbe, parasite or virus in culture; format: cell-based; conditions: for EC50: Human immunodeficiency virus 1, MT4, read-out: EC50 L100I; for SI L100I: ratio CC50/EC50, L100I; for RF L100I: ratio EC50 (resistant viral strain)/EC50 (wild-type viral strain)
Description: as §1

[5] = tested on: HIV-1 Y181C mutant strain; experiment: microbe, parasite or virus in culture; format: cell-based; conditions: for EC50: Human immunodeficiency virus 1, MT4, read-out: EC50 Y181C, MT-4 cells, Y181C, MTT method; for SI Y181C: ratio CC50/EC50, Y181C; for RF Y181C: ratio EC50 (resistant viral strain)/EC50 (wild-type viral strain)
Description: as §1

[6] = tested on: HIV-1 Y188L mutant strain; experiment: microbe, parasite or virus in culture; format: cell-based; conditions: for EC50: Human immunodeficiency virus 1, MT4, read-out: EC50 Y188L; for SI Y188L: ratio CC50/EC50, Y188L; for RF Y188L: ratio EC50 (resistant viral strain)/EC50 (wild-type viral strain)
Description: as §1

[7] = tested on: HIV-1 double-mutant strain RES056 (K103N/Y181C); experiment: microbe, parasite or virus in culture; format: cell-based; conditions: for EC50: Human immunodeficiency virus 1, MT4, read-out: EC50 RES056; for RF RES056: ratio EC50(resistant strain)/EC50(wild-type strain); for SI RES056: selectivity index, ratio CC50/EC50, RES056
Description: as §1

wild-type HIV-1 (IIIB) = experiment: microbe, parasite or virus in culture; format: cell-based; conditions: for EC50: Human immunodeficiency virus 1, MT4, MT-4 cells, HIV-1 IIIB, MTT method; for RF IIIB: ratio EC50(resistant strain)/EC50(wild-type strain); for SI IIIB: selectivity index, ratio CC50/EC50, IIIB
Description: as §1

[8] = Cytotoxicity in mock-infected MT-4 cells, MTT method; format: cell-based; conditions: human
Description: The 3-(4,5-dimethylthiazol-2-yl)-2,5-diphenyltetrazolium bromide (MTT) method was used to evaluate the antiviral activity and cytotoxicity of the synthesized compounds as previously described. At the beginning of each experiment, stock solutions (10× final concentration) of test compounds were added in 25 μL volumes to two series of triplicate wells for allowing the simultaneous evaluation of their effects on mock- and HIV-infected cells. The serial 5-fold dilutions of the compounds were made in flat-bottomed 96-well microtiter trays directly, including untreated control HIV-1 and mock infected cell samples for each sample using a Biomek 3000 robot (Beckman Instruments, Fullerton, CA, USA). HIV-1 (IIIB) and mutant HIV-1 strains (RES056, F227L/V106A, L100I, K103N, E138K, Y181C, and Y188L) stock (50 μL at 100–300 CCID50) (50% cell culture infectious dose) or culture medium was added to either the infected or mock-infected wells of the microtiter tray. Mock-infected cells were used to evaluate the effect on uninfected cells to assess the cytotoxicity of the test compounds. Exponentially growing MT-4 cells were centrifuged for […] at 1000 rpm (Eppendorf 5424, Hamburg, Germany) and then the supernatant was discarded. The MT-4 cells were resuspended at 6 × 10^5 cells/mL and 50 μL aliquots were transferred to the microtiter tray wells. At 5 days after infection, the viability of mock- and HIV-infected cells was determined spectrophotometrically by means of MTT assay.
(§2) The MTT assay is based on the reduction of yellow-colored MTT (Acros Organics, Geel, Belgium) by mitochondrial dehydrogenase of metabolically active cells to form a blue-purple formazan. The absorbances were read in an eight-channel computer-controlled photometer at the wavelengths of 540 and 690 nm. All data were calculated using the median optical density (OD) value of three wells.

[9] = molecular target: T1, recombinant wild-type HIV-1 RT enzyme (Human immunodeficiency virus type 1 group M subtype B, UniProt P03366); experiment: HIV-1 RT inhibition assay (ELISA, Roche RT assay kit); format: biochemical
T1 construct: recombinant wild-type HIV-1 RT enzyme; purchased Roche (Basel, Switzerland)
Description: The HIV-1 RT inhibition assay was performed by using an RT assay kit produced by Roche (Basel, Switzerland).
The biotin-labeled dNTPs were incorporated into the cDNA chain in the presence of RT and bound to streptavidin. The washing buffer was used to wash the unbound dNTPs and add the anti-DIG-POD to the MTPs.
The peroxide substrate (ABST) solution was added to the MTPs, when the unbound anti-DIG-PODs were washed out. […] The absorbance of the sample was determined at OD405 nm using a microtiter plate ELISA reader. The percentage inhibitory activity of RT inhibitors was calculated according to the following formula: % inhibition = [O.D. value with RT but without inhibitors − O.D. value with RT and inhibitors]/[O.D. value with RT and inhibitors − O.D. value without RT and inhibitors].

[10] = tested on: wild-type and mutant HIV-1 strains; experiment: Anti-HIV-1 activity in MT-4 cells, MTT method, panel of strains (range over strains); format: cell-based; conditions: Human immunodeficiency virus 1, MT4, read-out: EC50 values over wild-type and a panel of single mutations
Description: […]. […] […].
The 3-(4,5-dimethylthiazol-2-yl)-2,5-diphenyltetrazolium bromide (MTT) method was used to evaluate the antiviral activity and cytotoxicity of the synthesized compounds as previously described. At the beginning of each experiment, stock solutions (10× final concentration) of test compounds were added in 25 μL volumes to two series of triplicate wells for allowing the simultaneous evaluation of their effects on mock- and HIV-infected cells. The serial 5-fold dilutions of the compounds were made in flat-bottomed 96-well microtiter trays directly, including untreated control HIV-1 and mock infected cell samples for each sample using a Biomek 3000 robot (Beckman Instruments, Fullerton, CA, USA). […] At 5 days after infection, the viability of mock- and HIV-infected cells was determined spectrophotometrically by means of MTT assay.
as §2

With Cc1cc(C#N)cc(C)c1Oc1nc(Nc2ccc(B3OC(C)(C)C(C)(C)O3)cc2)nc2c1COC2 [Compound 3c, 3,5-Dimethyl-4-((2-((4-(4,4,5,5-tetramethyl-1,3,2-dioxaborolan-2-yl)phenyl)amino) -5,7-dihydrofuro [3,4-d]pyrimidin-4-yl)oxy)benzonitrile] the EC50 [1] was 130 ± 41 nM, the “SI E138K” value [1] was 731 and the “RF E138K” value [1] was 2.5. The EC50 [2] was 9100 ± 2640 nM, the “SI F227L + V106A” value [2] was 10 and the “RF F227L + V106A” value [2] was 177.2. For the same molecule, the EC50 [3] was 120 ± 19 nM, the “SI K103N” value [3] was 792 and the “RF K103N” value [3] was 2.3. The EC50 [4] was 2430 ± 302 nM, the “SI L100I” value [4] was 39 and the “RF L100I” value [4] was 47.3. For the same molecule, the EC50 [5] was 4370 ± 2190 nM, the “SI Y181C” value [5] was 22 and the “RF Y181C” value [5] was 85.1. For the same molecule, the EC50 [6] was 4520 ± 1540 nM, the “SI Y188L” value [6] was 21 and the “RF Y188L” value [6] was 87.9. For the same molecule, the EC50 [7] was 25800 ± 7930 nM, the “RF RES056” value [7] was 503 and the “SI RES056” value [7] was under 1. For the same molecule, the EC50 (wild-type HIV-1 (IIIB)) was 51 ± 15 nM, the “RF IIIB” value (wild-type HIV-1 (IIIB)) was 1.0 and the “SI IIIB” value (wild-type HIV-1 (IIIB)) was 1847. The CC50 at 5 days [8] was 94800 ± 32200 nM, the IC50 [9] was 228 ± 45 nM and the melting point was 149 to 151 °C.
In the case of Cc1cc(/C=C/C#N)cc(C)c1Oc1nc(Nc2ccc(B3OC(C)(C)C(C)(C)O3)cc2)nc2ccsc12 [Compound 4a, (E)-3-(3,5-Dimethyl-4-((2-((4-(4,4,5,5-tetramethyl-1,3,2-dioxaborolan-2-yl)phenyl)amino)thieno [3,2-d]pyrimidin-4-yl)oxy)phenyl)acrylonitrile], the EC50 [1] is reported as 21 ± 7 nM, the “SI E138K” value [1] is reported as > 11,261 and the “RF E138K” value [1] is reported as 2.4. For the same molecule, the EC50 [2] was over 1810 nM, the “RF F227L + V106A” value [2] was 209.7 and the EC50 [3] was 5 ± 6 nM. The “SI K103N” value [3] was > 47,170, the “RF K103N” value [3] was 0.6 and the EC50 [4] was 186 ± 32 nM. For the same molecule, the “fold more potent than NVP” value ([4]; L100I EC50, versus NVP) was 3.3 fold, the “SI L100I” value [4] was over 1285 and the “RF L100I” value [4] was 21.4. For the same molecule, the “SI Y181C” value [5] was over 368, the “RF Y181C” value [5] was 74.8 and the EC50 [6] was 1610 ± 508 nM. For the same molecule, the “SI Y188L” value [6] was over 148, the EC50 [7] was over 238000 nM and the “RF RES056” value [7] was over 27516. For the same molecule, the EC50 (wild-type HIV-1 (IIIB)) was 9 ± 2 nM, the “RF IIIB” value (wild-type HIV-1 (IIIB)) was 1.0 and the CC50 at 5 days [8] was over 238000 nM. The IC50 [9] was 167 ± 31 nM and the EC50 [10] was 5 to 648 nM.
With Cc1cc(/C=C/C#N)cc(C)c1Oc1nc(Nc2ccc(B3OC(C)(C)C(C)(C)O3)cc2)nc2sccc12 [Compound 4b, (E)-3-(3,5-Dimethyl-4-((2-((4-(4,4,5,5-tetramethyl-1,3,2-dioxaborolan-2-yl)phenyl)amino)thieno [2,3-d]pyrimidin-4-yl)oxy)phenyl)acrylonitrile] the EC50 [1] was 30 ± 9 nM, the “SI E138K” value [1] was 732 and the “RF E138K” value [1] was 3.0. The EC50 [2] was 3210 ± 1970 nM, the “SI F227L + V106A” value [2] was 7 and the “RF F227L + V106A” value [2] was 313.5. The EC50 [3] was 8 ± 2 nM, the “SI K103N” value [3] was 2866 and the “RF K103N” value [3] was 0.8. The EC50 [4] was 280 ± 55 nM, the “SI L100I” value [4] was 79 and the “RF L100I” value [4] was 27.4. For the same molecule, the EC50 [5] was 675 ± 188 nM, the “SI Y181C” value [5] was 33 and the “RF Y181C” value [5] was 65.9. For the same molecule, the EC50 [6] was 2520 ± 238 nM, the “SI Y188L” value [6] was 9 and the “RF Y188L” value [6] was 246.1. The EC50 [7] was 2300 ± 660 nM, the “fold more potent than 3b” value ([7]; RES056 EC50, versus 3b) was 75 fold and the “RF RES056” value [7] was 224. The “SI RES056” value [7] was 10, the EC50 (wild-type HIV-1 (IIIB)) was 10 ± 3 nM and the “RF IIIB” value (wild-type HIV-1 (IIIB)) was 1.0. The “SI IIIB” value (wild-type HIV-1 (IIIB)) was 2161, the CC50 at 5 days [8] was 22100 ± 3690 nM and the IC50 [9] was 47 ± 1 nM.
With Cc1cc(/C=C/C#N)cc(C)c1Oc1nc(Nc2ccc(B3OC(C)(C)C(C)(C)O3)cc2)nc2c1COC2 [Compound 4c, (E)-3-(3,5-Dimethyl-4-((2-((4-(4,4,5,5-tetramethyl-1,3,2-dioxaborolan-2-yl)phenyl)amino)-5,7-dihydrofuro [3,4-d]pyrimidin-4-yl)oxy)phenyl)acrylonitrile] the EC50 [1] was 39 ± 18 nM, the “SI E138K” value [1] was 2036 and the “RF E138K” value [1] was 2.9. The EC50 [2] was 5880 ± 2520 nM, the “SI F227L + V106A” value [2] was 14 and the “RF F227L + V106A” value [2] was 431.5. For the same molecule, the EC50 [3] was 26 ± 5 nM, the “SI K103N” value [3] was 3110 and the “RF K103N” value [3] was 1.9. For the same molecule, the EC50 [4] was 553 ± 152 nM, the “SI L100I” value [4] was 145 and the “RF L100I” value [4] was 40.6. The EC50 [5] was 1280 ± 489 nM, the “SI Y181C” value [5] was 63 and the “RF Y181C” value [5] was 94.2. The EC50 [6] was 3960 ± 894 nM, the “SI Y188L” value [6] was 20 and the “RF Y188L” value [6] was 290.3. The EC50 [7] was 13900 ± 9320 nM, the “RF RES056” value [7] was 1018 and the “SI RES056” value [7] was 6. For the same molecule, the EC50 (wild-type HIV-1 (IIIB)) was 14 ± 6 nM, the “RF IIIB” value (wild-type HIV-1 (IIIB)) was 1.0 and the “SI IIIB” value (wild-type HIV-1 (IIIB)) was 5890. For the same molecule, the CC50 at 5 days [8] was 80300 ± 31300 nM, the IC50 [9] was 200 ± 28 nM and the melting point was 134 to 136 °C.
